Reference: the OPERA property sets (Mansouri et al. 2018)

Conditions: for log10 BCF / log10 biotransformation half-life (days): fish

SMILES	boiling point [°C]	melting point [°C]	also measured
c1cncc([C@@H]2CCCCN2)c1	276	9	
NC(=O)c1ccc(F)cc1		156	
FC(F)(F)C(F)(F)C(F)(F)C(F)(F)C(F)(F)C(F)(F)C(F)(F)I	138		
Clc1ccc(Cl)cc1	174	52.1	log10 Henry constant (atm·m³/mol): -2.62; log10 Koa: 4.46; log10 Koc (L/kg): 2.65; log10 vapour pressure (mmHg): 0.24; ready biodegradability: not readily biodegradable; log10 BCF: 2.62; log10 biotransformation half-life (days): 1.1
Clc1cc(Cl)cc(C2(CC(Cl)(Cl)Cl)CO2)c1 (configuration not stated)		42.8	log10 Koc (L/kg): 3.75
O=C(Cl)c1cccc(C(F)(F)F)c1	187		
CCN(CC)CC#CCOC(=O)C(O)(c1ccccc1)C1CCCCC1.Cl (configuration not stated)		130	
Cc1cccc(C)c1NC(=O)CN(CC(=O)O)CC(=O)O		202	
COC(=O)c1ccc(C(F)(F)F)nc1S(=O)(=O)[N]([Na])C(=O)Nc1nc(OC)cc(OC)n1			log10 Koc (L/kg): 1.46
CCN(CC)CCCC(C)N (configuration not stated)	201		
CCCCCCCCCCS	241	-26	log10 vapour pressure (mmHg): -1.44
CCCCNCCCC	160	-62	log10 Henry constant (atm·m³/mol): -4.05; log10 vapour pressure (mmHg): 0.413; ready biodegradability: readily biodegradable
CCN(CC)C(=O)CC(C)C	211		
CC1=CCc2ccccc21	198		log10 biodegradation half-life (days): 0.477
C=C(C)C(=O)OCCO			log10 vapour pressure (mmHg): -0.9; ready biodegradability: readily biodegradable
FC(F)(F)C(F)(F)I	13		
CCN(CC)N=O	177		log10 Henry constant (atm·m³/mol): -5.44; log10 vapour pressure (mmHg): -0.0655; ready biodegradability: not readily biodegradable
COC(=O)Nc1cccc(Cl)c1			log10 Koc (L/kg): 2.15
Cc1noc(NS(=O)(=O)c2ccc(N)cc2)c1C		191	
N#Cc1ccc(C=O)cc1		100	
CCC(C)(O)C(C)C (configuration not stated)	140		
CCN(CC)c1ccc(C=O)cc1		41	ready biodegradability: not readily biodegradable

SMILES	boiling point [°C]	melting point [°C]	also measured
CC(C)CCc1ccccc1	195		
COC(F)(F)C(F)(F)F			log10 vapour pressure (mmHg): 3.21
CC1=CC(=O)CC(C)(C)C1	215	-8.1	log10 Koc (L/kg): 1.4; log10 vapour pressure (mmHg): -0.358; ready biodegradability: readily biodegradable; log10 BCF: 0.3; log10 biotransformation half-life (days): -1.29
CCC(C1CCCCC1)C1CCCCC1	284	-23.5	
CC1COC(=O)O1 (configuration not stated)	242	-48.8	log10 vapour pressure (mmHg): -1.35; ready biodegradability: readily biodegradable
Cc1ccc(C(=O)O)cc1C		165	
Oc1ccc2c(c1)[C@@]13CCCC[C@H]1[C@@H](C2)NCC3		271	
O=C(OC(=O)C(F)(F)F)C(F)(F)F	39.5	-65	log10 vapour pressure (mmHg): 1.61
CNC(=O)Oc1ccc(N(C)C)c(C)c1		93.5	log10 Koc (L/kg): 2; ready biodegradability: readily biodegradable
N[C@@H](CC(=O)O)C(=O)O (racemic)		272	
O=C(O)c1ccccc1Nc1cccc(C(F)(F)F)c1		134	
COc1cc(C=O)ccc1O[C@@H]1O[C@H](CO)[C@@H](O)[C@H](O)[C@H]1O		189	
CC(C)C=CCO	159		
FCOC(C(F)(F)F)C(F)(F)F	58.5		log10 vapour pressure (mmHg): 2.29
CCOP(=S)(OCC)SCCSCC		-25	log10 Koc (L/kg): 3.22; log10 vapour pressure (mmHg): -4.01; log10 BCF: 2.34; log10 biotransformation half-life (days): 0.03
CCCCOc1ccccc1OCCCC			ready biodegradability: not readily biodegradable
c1ccc2c(c1)OCCOCCOCCOc1ccccc1OCCOCCOCCO2		104	
CCCCCCCCNC(C)C(O)c1ccc(SC(C)C)cc1 (configuration not stated)		62.5	
C/C=C(\C)C(=O)OC	139		
CCc1ccc(C(C)=O)cc1		-20.6	log10 vapour pressure (mmHg): -0.0389
CCC(C)(CC)OC(N)=O		56	log10 vapour pressure (mmHg): -0.155
O=S1OC[C@@H]2[C@H](CO1)[C@]1(Cl)C(Cl)=C(Cl)[C@@]2(Cl)C1(Cl)Cl (some centres not stated)			log10 Koa: 8.64

SMILES	boiling point [°C]	melting point [°C]	also measured
C[C@H](CCC(=O)O)[C@H]1CC[C@H]2[C@@H]3CC[C@@H]4C[C@H](O)CC[C@]4(C)[C@H]3CC[C@]12C		186	
C[C@]12C=CC(=O)C=C1CC[C@@H]1[C@@H]2CC[C@]2(C)OC(=O)CC[C@@H]12		218	
CCOC(=O)CC(=O)OCC	200	-50	log10 vapour pressure (mmHg): -0.57; ready biodegradability: readily biodegradable
CC1CCC(C(=O)O)C(C(=O)O)C1 (configuration not stated)			log10 BCF: 0.38
CCCN(CCC)N=O	206		ready biodegradability: not readily biodegradable
Cc1cccc(NC(N)=O)c1			log10 Koc (L/kg): 1.56
CC(C)CCBr	120	-112	log10 Henry constant (atm·m³/mol): -1.46; log10 vapour pressure (mmHg): 1.54
COc1ccc2c(c1)CC[C@@H]1[C@@H]2CC[C@]2(C)[C@@H](O)[C@H](O)C[C@@H]12		159	
Cc1cc(C)cc(O)c1	222	63.6	log10 Henry constant (atm·m³/mol): -6.21; log10 Koc (L/kg): 2.83; log10 vapour pressure (mmHg): -1.39
Clc1cc2c(oc3c(Cl)c(Cl)c(Cl)c(Cl)c32)c(Cl)c1Cl		233	log10 Koa: 11.2; log10 vapour pressure (mmHg): -10.5; log10 BCF: 3.45; log10 biotransformation half-life (days): 0.9
CCCC(C)Cl (configuration not stated)	99	-80	log10 vapour pressure (mmHg): 1.69
CCCN(CCC)c1ccccc1	242		
N#Cc1nc(C#N)nc(C#N)n1	262	119	
C=CCc1ccc(O)c(OC)c1	253	-9.1	log10 vapour pressure (mmHg): -1.65
O=C(Nc1ccc(Cc2ccc(NC(=O)N3CC3)cc2)cc1)N1CC1			ready biodegradability: not readily biodegradable
NC(=O)OCCCc1ccccc1		102	
CON(C)C(=O)Nc1ccc(Br)c(Cl)c1		96	log10 Koc (L/kg): 2.7; log10 vapour pressure (mmHg): -6.4
CCOC(=O)C(Cl)C(=O)OCC	222		
Cc1c(Cl)cccc1Cl	198	25.8	ready biodegradability: not readily biodegradable
C=COCC(CC)CCCC (configuration not stated)		-100	ready biodegradability: not readily biodegradable; log10 BCF: 2.78
Cc1cccc(Nc2ccccc2C(=O)O)c1C		230	
COc1cc(N)ccc1C	251	56.5	

SMILES	boiling point [°C]	melting point [°C]	also measured
C=Cc1ccc(C)cc1C		-64	
CCCCCC(C)=O	151	-35	log10 Henry constant (atm·m³/mol): -3.77; log10 Koa: 4.15; log10 vapour pressure (mmHg): 0.586
Clc1ccc2ccc(Cl)c(Cl)c2c1			log10 Koa: 7.5
COc1ccc2c(OC)c3ccoc3nc2c1OC		177	
O=C(O)/C=C/CCl		83	
FCCCl	53.1	-50	
CCCCCCCCCCCCCCCCc1ccccc1	385	27	log10 vapour pressure (mmHg): -5.45
CCCC(C)(CC)CC	141		
O=C1C(Br)=CC(=NCl)C=C1Br		83	
COc1ccc2c(c1)c(CC(=O)O)c(C)n2C(=O)/C=C/c1ccccc1		170	
O=[n+]1[n-]c(-n2ccnc2)nc2ccc(Cl)cc21		182	log10 vapour pressure (mmHg): -8.65
CCCCCCCCOCCCCCCCC	283	-7.6	ready biodegradability: readily biodegradable
BrC1CCC(Br)C(Br)CCC1Br (configuration not stated)			ready biodegradability: not readily biodegradable
CCOC(=O)CC(=O)C(F)(F)F	133		
CCCC(C)(C)O	121	-103	log10 vapour pressure (mmHg): 0.934
C[Si](C)(C)Cc1ccccc1	190		
CCCCCCCCCCCCOP(=O)(O)O			ready biodegradability: readily biodegradable
COc1cc(C=CCO)ccc1O		74	
O=[N+]([O-])c1cccc2cccnc12		90	
